Laboratory results published in the supplement of paper PMC11451515.

Test system: NOMO1
Test: cell viability relative to DMSO control; higher = less cytotoxic
Settings: 48 h
How it was run: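 Three leukemia lines were tested: NOMO1 and SEM at 500 cells/well and P12-Ichikawa at 1000 cells/well. Each was adapted for at least four passages in each medium and seeded in 5 μl in 1536-well plates, and library compounds in DMSO were pin-dosed from 47 μM to 0.79 nM in 11 threefold steps. After 48 h at 37°C, CellTiter-Glo One luminescence was read. Viability is a percentage relative to DMSO wells on each plate, with cell-free wells as background.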

[1] = HPLM + 10% dialyzed FBS, 0.000781 µM
[2] = HPLM + 10% dialyzed FBS, 0.00234 µM
[3] = HPLM + 10% dialyzed FBS, 0.00702 µM
[4] = HPLM + 10% dialyzed FBS, 0.0211 µM
[5] = HPLM + 10% dialyzed FBS, 0.0632 µM
[6] = HPLM + 10% dialyzed FBS, 0.19 µM
[7] = HPLM + 10% dialyzed FBS, 0.569 µM
[8] = HPLM + 10% dialyzed FBS, 1.71 µM
[9] = HPLM + 10% dialyzed FBS, 5.12 µM
[10] = HPLM + 10% dialyzed FBS, 15.4 µM
[11] = HPLM + 10% dialyzed FBS, 46.1 µM
[12] = RPMI 5 mM glucose + 10% FBS, 0.000781 µM
[13] = RPMI 5 mM glucose + 10% FBS, 0.00234 µM
[14] = RPMI 5 mM glucose + 10% FBS, 0.00702 µM
[15] = RPMI 5 mM glucose + 10% FBS, 0.0211 µM
[16] = RPMI 5 mM glucose + 10% FBS, 0.0632 µM
[17] = RPMI 5 mM glucose + 10% FBS, 0.19 µM
[18] = RPMI 5 mM glucose + 10% FBS, 0.569 µM
[19] = RPMI 5 mM glucose + 10% FBS, 1.71 µM
[20] = RPMI 5 mM glucose + 10% FBS, 5.12 µM
[21] = RPMI 5 mM glucose + 10% FBS, 15.4 µM
[22] = RPMI 5 mM glucose + 10% FBS, 46.1 µM
[23] = RPMI 5 mM glucose + 10% dialyzed FBS, 0.000781 µM
[24] = RPMI 5 mM glucose + 10% dialyzed FBS, 0.00234 µM
[25] = RPMI 5 mM glucose + 10% dialyzed FBS, 0.00702 µM
[26] = RPMI 5 mM glucose + 10% dialyzed FBS, 0.0211 µM
[27] = RPMI 5 mM glucose + 10% dialyzed FBS, 0.0632 µM
[28] = RPMI 5 mM glucose + 10% dialyzed FBS, 0.19 µM
[29] = RPMI 5 mM glucose + 10% dialyzed FBS, 0.569 µM
[30] = RPMI 5 mM glucose + 10% dialyzed FBS, 1.71 µM
[31] = RPMI 5 mM glucose + 10% dialyzed FBS, 5.12 µM
[32] = RPMI 5 mM glucose + 10% dialyzed FBS, 15.4 µM
[33] = RPMI 5 mM glucose + 10% dialyzed FBS, 46.1 µM

| Structure (SMILES) | cell viability [1] | cell viability [2] | cell viability [3] | cell viability [4] | cell viability [5] | cell viability [6] | cell viability [7] | cell viability [8] | cell viability [9] | cell viability [10] | cell viability [11] | cell viability [12] | cell viability [13] | cell viability [14] | cell viability [15] | cell viability [16] | cell viability [17] | cell viability [18] | cell viability [19] | cell viability [20] | cell viability [21] | cell viability [22] | cell viability [23] | cell viability [24] | cell viability [25] | cell viability [26] | cell viability [27] | cell viability [28] | cell viability [29] | cell viability [30] | cell viability [31] | cell viability [32] | cell viability [33] |
| --- | --- | --- | --- | --- | --- | --- | --- | --- | --- | --- | --- | --- | --- | --- | --- | --- | --- | --- | --- | --- | --- | --- | --- | --- | --- | --- | --- | --- | --- | --- | --- | --- | --- |
| COc1ccc(-c2cc3c(C)nc(N)nc3n([C@H]3CC[C@H](OCCO)CC3)c2=O)cn1 | 96.9% | 97.5% | 88.7% | 76.4% | 74.2% | 50% | 52.6% | 38% | 38.8% | 28.3% | 20% | 93.6% | 87% | 90.7% | 84.8% | 87.4% | 64.5% | 68.5% | 47.7% | 43.1% | 40.3% | 28.4% | 86.8% | 86.6% | 80.7% | 75.1% | 66.4% | 58.4% | 50% | 41.2% | 37.6% | 34.8% | 23.3% |
| Cc1cccc(Nc2nc(N[C@@H]3CCCC[C@@H]3N)ncc2C(N)=O)c1 | 119% | 109% | 119% | 115% | 115% | 126% | 110% | 80.9% | 77.4% | 85.5% | 83% | 96.1% | 106% | 114% | 117% | 129% | 109% | 113% | 99.1% | 58.7% | 56% | 51.5% | 101% | 99.2% | 109% | 107% | 119% | 115% | 108% | 82.4% | 55.5% | 58.6% | 56.8% |
| CN(C)Cc1cccc(N/C(=C2\C(=O)Nc3cc(C(=O)N(C)C)ccc32)c2ccccc2)c1 | 99.3% | 105% | 112% | 112% | 91.1% | 118% | 110% | 97.9% | 74.8% | 58.2% | 28.8% | 100% | 105% | 101% | 105% | 103% | 107% | 95.2% | 92.4% | 84.6% | 68.5% | 55% | 95.7% | 88.9% | 95.9% | 96.4% | 107% | 99.6% | 112% | 112% | 81.2% | 73% | 61.6% |
| COc1ccccc1N1CCN(CC(O)COc2cccc3ccccc23)CC1 (centres undefined) | – | – | – | – | – | – | – | – | – | – | – | 115% | 131% | 122% | 133% | 132% | 143% | 116% | 115% | 113% | 107% | 23.6% | – | – | – | – | – | – | – | – | – | – | – |
| CC(C)N(CCCNC(=O)Nc1ccc(C(C)(C)C)cc1)C[C@H]1O[C@@H](n2cc(Br)c3c(N)ncnc32)[C@H](O)[C@@H]1O | 98.3% | 101% | 112% | 84.5% | 105% | 106% | 110% | 95.1% | 85.4% | 71.4% | 9.86% | 80% | 96.3% | 88.7% | 87.8% | 86% | 80.8% | 92.2% | 80.9% | 94.2% | 73.8% | 31.8% | 86.4% | 81.3% | 93.6% | 105% | 90.1% | 86.3% | 81.6% | 82.2% | 90.5% | 68.8% | 26.2% |
| COCCNCCCn1c(C(=O)CF)c(-c2ccc(C)cc2)c2c(N)ncnc21 | 94.7% | 120% | 98.5% | 88.7% | 117% | 107% | 108% | 98% | 105% | 105% | 93.9% | 103% | 88% | 88.5% | 93.1% | 98% | 93.5% | 88.5% | 88.7% | 88.5% | 97.4% | 107% | 96.8% | 101% | 105% | 99.4% | 93.3% | 86.9% | 99.4% | 95.6% | 83.7% | 93% | 101% |
| COc1cc([S+](C)(=O)[O-])ccc1Nc1nc2ccc(-c3ccc(NC(=O)[C@H](C)c4ccc(F)cc4)cc3)cn2n1 | 104% | 120% | 139% | 146% | 157% | 137% | 139% | 99.3% | 109% | 101% | 100% | 106% | 129% | 122% | 131% | 134% | 123% | 124% | 92.4% | 101% | 94.9% | 97.2% | 114% | 117% | 123% | 130% | 120% | 136% | 129% | 92.7% | 96.3% | 96.1% | 88.8% |
| CCN(CCO)CCCC(C)Nc1ccnc2cc(Cl)ccc12 (centres undefined) | 111% | 105% | 104% | 123% | 112% | 139% | 107% | 101% | 90% | 53.2% | 26% | 107% | 115% | 110% | 102% | 101% | 118% | 115% | 116% | 110% | 45.2% | 21% | – | – | – | – | – | – | – | – | – | – | – |
| Cc1nc(C(=O)NCC(=O)O)c(O)c2ccc(Oc3ccccc3)cc12 | 106% | 113% | 113% | 119% | 113% | 116% | 104% | 101% | 118% | 97.4% | 107% | 99.4% | 105% | 95.7% | 87.2% | 94.5% | 104% | 86.6% | 94.9% | 84.5% | 102% | 92.5% | 84.4% | 85.3% | 108% | 105% | 116% | 98.2% | 96.2% | 94.9% | 82.2% | 104% | 99.4% |
